According to patent US12522596B2, “Compounds as GLP-1R agonists” (Terns Pharmaceuticals, Inc., priority 2021, dated 2026):
Entries after “also recorded” stand apart in the source; their conditions may differ.

Key:
[1] = tested on: mice expressing wildtype (WT) mouse GLP-1R; assay: Glucose tolerance in mice expressing wildtype mouse GLP-1R; assay type: in vivo; details: mice expressing WT mouse GLP-1R
Method: The glucose tolerance of mice expressing wildtype (WT) mouse GLP-1R was also evaluated after the administration of compound 2 using methods analogous to those described above. The glucose tolerance of mice expressing WT mouse GLP-1R was not affected by Compound 2, whereas the glucose tolerance of mice expressing human GLP-1R was improved by Compound 2 (FIGS. 9 and 10).

[2] = tested on: C57BL/6 mice expressing human GLP-1R (hGLP-1R); assay: Intraperitoneal glucose tolerance test (IPGTT) in hGLP-1R mice; assay type: in vivo, mouse; details: IP glucose bolus, relative to vehicle control
Method: The ability of compounds disclosed herein to modify the glucose tolerance of C57BL/6 mice expressing human GLP-1R (hGLP-1R), was evaluated.
The group design used in this study is described in Table 8.
Acclimation and grouping: Following a one-week washout period after in-life completion of the food intake study, mice were utilized to conduct an intraperitoneal Glucose Tolerance Test (IPGTT); mice remained in their treatment groups from study the food intake study. Baseline fasting glucose levels were used to balance treatment groups (final n=7 per treatment group); outlier mice (n=3), based on abnormal fasting blood glucose and body weight, were used for PK assessment.
Intraperitoneal Glucose Tolerance Test (IPGTT): The mice were placed clean cages with sawdust bedding and fasted overnight. Basal fasting glucose was measured by tail vein nick before dosing in the morning, 3 mice per group of abnormal fasting blood glucose and body weight were used for PK assessment. […] Blood glucose levels were measured at 0 (pre-dose), 15-, 30-, 60-, and 120-min post glucose dosing. […]
Data Processing and analysis: Manual data were transferred into an excel spreadsheet. All values are expressed as mean±S.E.M. The significances of the differences among groups and within groups were evaluated by one-way or two-way ANOVA using Graph Pad statistic software. […]

[3] = tested on: human hepatocytes; assay: Metabolic stability in human hepatocytes; assay type: in vitro ADME; details: human
Method in brief: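 Compounds at 1 μM (0.1% DMSO) were incubated with 1×10^6 cells/mL cryopreserved rat or human hepatocytes in DMEM at 37°C for 0–240 min. Parent remaining was measured by LC-MS/MS; k from semi-log decline gave t1/2 and CLint, with CLhep predicted by the well-stirred model.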

CLint relative to reference [3]	half-life relative to standard [3]	Structure (SMILES)	glucose tolerance [1]	glucose tolerance [2]
–	–	N#Cc1ccc(COc2cccc(C3CCN(Cc4nc5ccc(C(=O)O)cc5n4Cc4cncs4)CC3)n2)c(F)c1 [Compound 2]	not affected	significantly enhanced the glucose tolerance; also recorded: improved
no significant difference	no significant difference	N#Cc1ccc(COc2cccc(N3CCN(Cc4nc5ccc(C(=O)O)cc5n4Cc4cncs4)CC3)n2)c(F)c1 [Compound 30]	–	–
